The source of these data is paper PMC8950828 (Viruses, 2022).

The subject of data set [1] is HCoV-229E. Briefly: microbe, parasite or virus in culture. The format is cell-based, human coronavirus 229E.
Data set [2] relates to MERS-CoV. The experiment in a line: microbe, parasite or virus in culture. The data set is classed as cell-based, Middle East respiratory syndrome coronavirus.
Data set [3] concerns SARS-CoV-2. The experiment in a line: microbe, parasite or virus in culture. The data set is classed as cell-based.
The test system of data set [4] is MERS-CoV. The data set is classed as cell-based, Middle East respiratory syndrome coronavirus.
Data set [5] concerns 5′-UTRs of HCoV-229E, MERS-CoV and SARS-CoV-2. The data set is classed as cell-based, human.
The subject of data set [6] is 5′-UTR of HEV (HEVgt3c). The data set is classed as cell-based, human.
Data set [7] relates to human monocytes.
The subject of data set [8] is MRC-5 cells.
Data set [9] has as its system NHBE cells.
Data set [10] relates to SARS-CoV-2. Conditions: cited from earlier work.
Data set [11] is described as follows: in vitro. Conditions: human.
Data set [12] is described as follows: in vitro. Conditions: human. The source holds these as a separate data set.
Data set [13] is described as follows: in vitro. Particulars: human. The source holds these as a separate data set.
The nature of data set [14]: in vitro. Particulars: human. This is another data set of the same source.
Data set [15] can be described thus: in vitro. Conditions: human. This is another data set of the same source.
Data set [16] deals with primary human immune cells (monocytes, M1 macrophages, M2 macrophages, MdDCs and T cells). Briefly: Orangu cell viability assay, primary human immune cells overall. Particulars: all tested immune cell types, 0.5–100 nM.
The test system of data set [17] is M2 macrophages. Particulars: human.
Data set [18] concerns monocyte-derived dendritic cells (MdDCs). Particulars: human.
For data set [19], the system named is T cells.
Data set [20] concerns HCoV-229E. Particulars: cited from earlier work.
Data set [21] deals with MERS-CoV. Conditions: cited from earlier work.
For data set [22], the system named is SARS-CoV-2. Particulars: cited from earlier work. The source holds these as a separate data set.

Where two headings read alike, the source gives them in different places.

Consider `COc1cc2c(c(OC)n1)[C@]1(O)[C@H](O)[C@H](CN(C)C)[C@@H](c3ccccc3)[C@]1(c1ccc(C#N)cc1)O2` [Zotatifin], for which, in data set [1], the 50% effective concentration (EC50) (commonly the concentration that produces a half-maximal response) stood at 3.86 nM. In addition, in data set [1] (Human coronavirus 229E, MRC5), the midpoint of the response, the EC50, lay at 3.9 nM. In [2], a half-maximal effect (EC50) was put at 4.31 nM. The same molecule displayed a concentration giving a half-maximal response (EC50) in data set [2] (Middle East respiratory syndrome-related coronavirus, MRC5) of 4.3 nM. For the same molecule, in [3], the response was half-maximal at 41.6 nM (EC50) and the “fold less efficient (higher EC50) than CR-1-31-B against SARS-CoV-2” value is given as “around 20 fold”. Also, in data set [3] (Severe acute respiratory syndrome coronavirus 2, Vero C1008), the EC50 is 41.6 nM. Besides, in data set [4], the “effect on the replication of MERS-CoV” value is recorded as “no significant effect” and the “reduction of viral replication” value is given as “about two orders of magnitude”. In data set [5], the “translation efficiency (reporter gene expression) with coronavirus 5′-UTRs” value (shortened to “translation efficiency”) is reported as “sensitive” and the “translation inhibition compared with 10 nM of silvestrol or CR-1-31-B” value is recorded as “slightly weaker”. In addition, in data set [6], the “translation inhibition of HEVgt3c 5′-UTR reporter” value is “translation inhibition”, the “translation inhibition of HEVgt3c-Purine” value is on record as “regain translation inhibition” and the “translation inhibition of destabilized variants” value was “loss of the inhibitory effects”. Further, the “viability reduced to” value in data set [7] was “approximately 75%”. Further, the cytotoxicity entry in data set [8] is reported as “no significant cytotoxicity”. Also, the “cytotoxicity by TEER” value in data set [9] is reported as “no significant cytotoxicity”. Further, the concentration for an effect of 90% (EC90) (usually the point of the concentration-response curve where the effect stands at 90%) in data set [10] is 37 nM.
Consider `CONC(=O)[C@@H]1[C@H](O)[C@]2(O)c3c(OC)cc(OC)cc3O[C@]2(c2ccc(OC)cc2)[C@H]1c1ccccc1` [CR-1-30-B], for which the CC50 in data set [11], in [12], in data set [13], in [14] and in data set [15] was greater than 100 nM each time. In addition, in data set [16], the “impact on cell viability” value is reported as “essentially no impact on cell viability at all”.
With `COC(=O)[C@H]1[C@@H](O)[C@@]2(O)c3c(OC)cc(O[C@@H]4O[C@@H]([C@H](O)CO)CO[C@H]4OC)cc3O[C@@]2(c2ccc(OC)cc2)[C@@H]1c1ccccc1` [Silvestrol], in [5], the “translation efficiency” value is “sensitive”. Moreover, in [6], the “translation inhibition of HEVgt3c 5′-UTR reporter” value is given as “either a stable hairpin substrate or a polypurine stretch is sufficient”. The “translation inhibition of HEVgt3c-Purine” value in [6] is on record as “regain translation inhibition”. In addition, in [6], the “translation inhibition of destabilized variants” value is reported as “loss of the inhibitory effects”. Besides, the reduction of viability entry in data set [17] and in data set [18] was “approximately 50%” in each case. The effect on viability entry in data set [19] is on record as “not affected”. Besides, the EC50 in data set [20] is 3 nM; in [21], 1.3 nM.
For `CONC(=O)[C@H]1[C@@H](O)[C@@]2(O)c3c(OC)cc(OC)cc3O[C@@]2(c2ccc(OC)cc2)[C@@H]1c1ccccc1` [CR-1-31-B], the “effect on the replication of MERS-CoV” value in data set [4] is “no significant effect”. Besides, the “reduction of viral replication” value in [4] is listed as “nearly undetectable levels”. The “translation efficiency” value in data set [5] is recorded as “sensitive”. In addition, in [6], the “translation inhibition of HEVgt3c 5′-UTR reporter” value is given as “translation inhibition only in the presence of a polypurine stretch”. Besides, the “translation inhibition of HEVgt3c-Purine” value in [6] is reported as “regain translation inhibition”. Also, the reduction of viability entry in data set [17] and in data set [18] was “approximately 50%” in each case. Further, in data set [19], the effect on viability entry is “not affected”. In addition, the TEER signal reduction in data set [9] (human) was ~ 25%. The results for the EC50 in [20], in [21] and in [22] were 2.9 nM, 1.9 nM and 1.8 nM, respectively.
